Experimental data from PubChem BioAssay AID2060603 (Molecular Pharmacology Branch, DTP, NCI, 2025).
Where “and” joins values, the source holds several entries; their conditions need not be identical. Equal entries are not always repeated.

System: 422866-222-R5-J1-PDC spheroid viability
Assay: Anticancer human tumor 422866-222-R5-J1-PDC patient-derived pancreatic adenocarcinoma cell line growth inhibition [CLK]
Conditions: spheroids with HUVEC and MSC; for viability, T/C: stronger effect = lower value
From the text: A high-throughput screen of multi-cell type tumor spheroids was designed to identify active combinations of […] and targeted small molecules. Complex spheroids include a stromal component modeled by human endothelial cells (HUVEC) and fibroblasts modeled by human mesenchymal stem cells (MSCs). The concentration ranges selected for each drug and investigational agent were based upon clinically achievable concentrations if the clinical Cmax of the agent was known.
Compounds. The drugs and investigational agents: cirtuvivint (SM08502; NSC835563), CC-671 (NSC850746), vemurafenib (NSC761431), tapotoclax (NSC804041), sotorasib (NSC818433), adagrasib (NSC831453), MRTX-1133 (NSC836407), BAY2416964 (NSC825713), copanlisib (NSC816437), inavolisib (NSC800729), abemaciclib (NSC768073), osimertinib (NSC779217), entinostat (NSC756642), eltanexor (KPT-8602, NSC794443), venetoclax (NSC766270), ceralasertib (NSC777638), bortezomib (NSC756655), olaparib (NSC753686), talazoparib (NSC767125), alisertib (NSC759677), peposertib (NSC802822), gemcitabine (NSC613327), 5-fluorouracil (NSC19893), SN-38 (NSC673596), oxaliplatin (NSC266046), paclitaxel (NSC125973), and doxorubicin (NSC123127), were obtained from the National Cancer Institute (NCI) Developmental Therapeutics Program Chemical Repository. The FDA-approved anticancer drug set is available from the Developmental Therapeutics Program at https://dtp.cancer.gov/organization/dscb/obtaining/available plates.htm. […] The stock solutions were prepared in dimethyl sulfoxide (DMSO, Sigma-Aldrich, St. Louis, MO, cat. D2650), except for the platinum complexes which were prepared in saline (Quality Biological, Gaithersburg, MD, cat. 114-055-101), at 800-fold the tested concentration and stored at -70 degrees C prior to their use. All drugs and investigational agents were tested over a range starting from a high concentration at or near the clinical Cmax and decreasing in half-log increments. If the clinical Cmax for an agent had not been determined, the highest concentration tested was 10 microM.
Cell Culture. All cells were maintained in an incubator at 37 degrees C and 5% CO2 with 95% humidity. The PDC lines were cultured according to standard operating procedures established by the NCI PDMR. Briefly, all PDCs were thawed and cultured in Matrigel-coated flasks prepared with a working solution of 1X Ham's F-12 nutrient mix, without supplementation (Invitrogen, Waltham, MA, cat. 11765054), 100 U/mL penicillin-streptomycin (Invitrogen, cat. 15140122), and 2.5% Matrigel (Corning Inc., Corning, NY, cat. 354248) for the first three passages. The 947758-054-R-J2-PDC line was cultured in 6B/Colon 1A media, which includes advanced DMEM/F-12 (Thermo Fisher Scientific, cat. 12634028), 10 mM HEPES (Thermo Fisher Scientific, cat. 15630080), 1X GlutaMAX supplement (Thermo Fisher Scientific, cat. 35050061), 0.1 mg/mL primocin (InvivoGen, cat. ant-pm-2), 10% defined fetal bovine serum, heat inactivated (HyClone Laboratories Inc., cat. SH30070.03HI), 1.25 mM N-Acetyl-L-cysteine (Sigma-Aldrich, cat. A9165), 10 mM nicotinamide (Sigma-Aldrich, cat. N0636), 1X B-27 supplement (Thermo Fisher Scientific, cat. 17504044), 1X N-2 supplement (Thermo Fisher Scientific, cat. 17502048), and 10 microM Y-27632 dihydrochloride (Tocris Bioscience, cat. 1254). The 876862-298-R-J1-PDC was cultured in 6E media, which includes all 6B/Colon 1A media components plus 50% L-WRN conditioned media (ATCC, cat. CRL-3276), 50 ng/mL recombinant human EGF recombinant protein (hEGF; Thermo Fisher Scientific, cat. PHG0311), 10 ng/mL recombinant human fibroblast growth factor 10 (hGFG-10; PeproTech, cat. 100-26), 1 ng/mL recombinant human fibroblast growth factor 2 (hFGF-2; PeproTech, cat. 100-18B), and 1 µM prostaglandin E2 (PGE2; Tocris, cat. 2296). The 227483-062-R1-J1-PDC line was cultured in Panc media, containing all 6E components except hFGF-2, with the addition of 500 nM SB-431542 (Selleckchem, cat. S1067) and 10 nM gastrin (Tocris, cat. 3006). […]
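Further: spheroids exposed to agents for seven days before readout.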

IC50 (curve of compound)	SMILES	viability, T/C (compound 0.0316 µM)	viability, T/C (compound 0.1 µM)	viability, T/C (compound 0.316 µM)	viability, T/C (compound 1 µM)	viability, T/C (compound 3.16 µM)	viability, T/C (compound 10 µM)	other results
881 nM and 1900 nM	C#Cc1c(F)ccc2cc(O)cc(-c3ncc4c(N5CC6CCC(C5)N6)nc(OCC56CCCN5CC(F)C6)nc4c3F)c12 (stereo unspecified)	76.7% and 87.4%	73.1% and 85.8%	55.9% and 64.3%	51.7% and 67%	36.1% and 38.3%	26.8% and 29.4%	–
< 31.6 nM	C=CC(=O)N1CCN(c2nc(=O)n(-c3c(C)ccnc3C(C)C)c3nc(-c4c(O)cccc4F)c(F)cc23)C(C)C1 (stereo unspecified)	33% and 35.7%	27% and 28.4%	24.9% and 25.6%	27.6% and 25.6%	32.8% and 25.4%	25.2% and 30%	–
> 10000 nM	CC1(C)CCC(CN2CCN(c3ccc(C(=O)NS(=O)(=O)c4ccc(NCC5CCOCC5)c([N+](=O)[O-])c4)c(Oc4cnc5[nH]ccc5c4)c3)CC2)=C(c2ccc(Cl)cc2)C1	89.7% and 94.5%	95.6% and 97.1%	103% and 77.2%	105% and 92.1%	99.1% and 120%	69.8% and 69%	–
> 1000 nM	CCN1CCN(Cc2ccc(Nc3ncc(F)c(-c4cc(F)c5nc(C)n(C(C)C)c5c4)n3)nc2)CC1	87% and 73.9%	82.6% and 59.1%	80.8% and 66.4%	98.7% and 90.2%	–	–	viability, T/C (compound 0.00316 µM): 99.5% and 74%; viability, T/C (compound 0.01 µM): 84% and 78.8%
15.4 nM and 14.8 nM	COc1c(OCCCN2CCOCC2)ccc2c3n(c(=NC(=O)c4cnc(N)nc4)nc12)CCN3	37.6% and 32.8%	33.2% and 29.1%	29.7% and 26%	32.4% and 33.2%	–	–	viability, T/C (compound 0.00316 µM): 78.6% and 87.6%; viability, T/C (compound 0.01 µM): 57.4% and 58.9%
> 10000 nM	O=C(c1cc(Cc2n[nH]c(=O)c3ccccc23)ccc1F)N1CCN(C(=O)C2CC2)CC1	99% and 103%	94% and 98.7%	102% and 87.7%	102% and 105%	80.1% and 94%	81.2% and 78.8%	–

Continued, molecule first:

SMILES	IC50 (curve of compound)	viability, T/C (compound 0.0316 µM)	viability, T/C (compound 0.1 µM)	viability, T/C (compound 0.316 µM)	viability, T/C (compound 1 µM)	viability, T/C (compound 3.16 µM)	viability, T/C (compound 10 µM)	other results
C=C(F)C(=O)N1CCN(c2nc(OCC3CCCN3C)nc3c2CCN(c2cccc4cccc(Cl)c24)C3)CC1CC#N (stereo unspecified)	< 31.6 nM	31.6% and 42%	23.6% and 24.5%	19.6% and 21%	26.1% and 22.8%	11.2% and 15.2%	0.14%	–
C=CC(=O)Nc1cc(Nc2nccc(-c3cn(C)c4ccccc34)n2)c(OC)cc1N(C)CCN(C)C	> 300 nM	–	–	–	–	–	–	viability, T/C (compound 0.000949 µM): 117% and 87.2%; viability, T/C (compound 0.003 µM): 106% and 102%; viability, T/C (compound 0.00949 µM): 83% and 85%; viability, T/C (compound 0.03 µM): 93.5% and 83.8%; viability, T/C (compound 0.0949 µM): 82.8% and 69%; viability, T/C (compound 0.3 µM): 74.9% and 72.9%
CC(C)CC(NC(=O)C(Cc1ccccc1)NC(=O)c1cnccn1)B(O)O (stereo unspecified)	4.28 nM and 5.36 nM	–	–	–	–	–	–	viability, T/C (compound 0.000949 µM): 95.5% and 91.7%; viability, T/C (compound 0.003 µM): 64.7% and 73.9%; viability, T/C (compound 0.00949 µM): 16.9% and 26.7%; viability, T/C (compound 0.03 µM): 2.66% and 2.25%; viability, T/C (compound 0.0949 µM): 0.86% and 0.8%; viability, T/C (compound 0.3 µM): 2.88% and 1.33%
CC(CO)NC(=O)c1cc(-c2ccc(Cl)cc2)nn(-c2cnn(C)c2)c1=O (stereo unspecified)	> 10000 nM	93.7% and 89.7%	96.4% and 110%	90.4% and 96.5%	106% and 108%	96.3% and 107%	78.1% and 83%	–
CC(Nc1ccc2c(c1)OCCn1cc(N3C(=O)OCC3C(F)F)nc1-2)C(N)=O (stereo unspecified)	308 nM and 113 nM	76.1% and 62.1%	67.9% and 53.8%	46.1% and 36.7%	42.5% and 38.5%	34.2% and 31.7%	32% and 27.6%	–
CC1COCCN1c1cc(C2(S(C)(=N)=O)CC2)nc(-c2ccnc3[nH]ccc23)n1 (stereo unspecified)	> 10000 nM and 7890 nM	94.6% and 88.6%	92.4% and 94.7%	97.3% and 95.7%	94.2% and 94.3%	66.9% and 58.5%	54.5% and 47.8%	–
CCCS(=O)(=O)Nc1ccc(F)c(C(=O)c2c[nH]c3ncc(-c4ccc(Cl)cc4)cc23)c1F	> 10000 nM	103% and 89.2%	100% and 86%	128% and 114%	147% and 152%	169% and 165%	137% and 149%	–
CCc1c2c(nc3ccc(O)cc13)-c1cc3c(c(=O)n1C2)COC(=O)[C@]3(O)CC	< 3.16 nM	44% and 44.3%	47.2% and 45.5%	41.7% and 43.5%	19.9% and 18.4%	–	–	viability, T/C (compound 0.00316 µM): 45.8% and 52.3%; viability, T/C (compound 0.01 µM): 37% and 43.1%
CNC(=O)c1ccc(Nc2nc(OC3CCCC3)c3c(-c4ccc5nc(C)oc5c4)c[nH]c3n2)c(OC)c1	–	99.4% [middle of 12 runs]	93.4% [middle of 12 runs]	70.8% [middle of 12 runs]	68.3% [middle of 12 runs]	74.5% [middle of 12 runs]	–	IC50 (compound alone, run of 08/15/2023): > 10000 nM
COC1C=CCC(C)C(C)S(=O)(=O)NC(=O)c2ccc3c(c2)N(CC2CCC21)CC1(CCCc2cc(Cl)ccc21)CO3 (stereo unspecified)	> 10000 nM	102% and 113%	91.9% and 102%	95.6% and 101%	97.8% and 87.8%	87.5% and 111%	59.8% and 69.4%	–
Cn1ncnc1[C@H]1c2n[nH]c(=O)c3cc(F)cc(c23)N[C@@H]1c1ccc(F)cc1	> 100 nM	91.4%	85% and 87.1%	–	–	–	–	viability, T/C (compound 0.000316 µM): 86.9% and 103%; viability, T/C (compound 0.001 µM): 110% and 95.5%; viability, T/C (compound 0.00316 µM): 97% and 99.8%; viability, T/C (compound 0.01 µM): 101% and 87.8%
NC(=O)C(=Cn1cnc(-c2cc(C(F)(F)F)cc(C(F)(F)F)c2)n1)c1cncnc1	> 3000 nM	–	–	–	–	–	–	viability, T/C (compound 0.00949 µM): 95.7% and 97.4%; viability, T/C (compound 0.03 µM): 103% and 84%; viability, T/C (compound 0.0949 µM): 86.1% and 81.5%; viability, T/C (compound 0.3 µM): 72.6% and 58.2%; viability, T/C (compound 0.949 µM): 89.1% and 92.3%; viability, T/C (compound 3 µM): 76.9% and 76.2%
Nc1ccccc1NC(=O)c1ccc(CNC(=O)OCc2cccnc2)cc1	> 10000 nM	102% and 93.7%	129% and 108%	144% and 139%	106% and 104%	78.5% and 92.5%	86.9% and 81.8%	–
Nc1ccn(C2OC(CO)C(O)C2(F)F)c(=O)n1 (stereo unspecified)	221 nM and 79.5 nM	73.9% and 72.8%	60.1% and 44.8%	44.6% and 38%	41.9% and 46.5%	41.6% and 39.7%	36.3% and 40.9%	–
O=c1[nH]cc(F)c(=O)[nH]1	> 10000 nM	101% and 102%	95.5% and 95.8%	91.1% and 85.6%	98% and 85.2%	65.5% and 77.1%	90.2% and 74.7%	–
